What was measured:
[1] = system: MOLM13, MV411, ML2, and HL60 cell lines; test: Cell viability, live cell count by Trypan blue exclusion; assay type: cell-based, human; details: 10 μM and 20 μM every 48 hours for 6 days
Protocol: Cell culture. The human AML lines MV411, MOLM13, ML2, and HL60 were obtained from the American Type Culture Collection (ATCC, Manassas, Va., USA). Umbilical cord blood was obtained from the New York Blood Center. The identity of all cell lines was verified by STR analysis (Genetica DNA Laboratories, Burlington, N.C., USA) and absence of Mycoplasma sp. contamination was determined using Lonza MycoAlert (Lonza Walkersville, Inc., Walkersville, Md., USA). Cell lines were cultured in 5% CO2 in a humidified atmosphere at 37° C. in RPMI medium supplemented with 10% fetal bovine serum (FBS) and antibiotics (100 U/ml penicillin and 100 μg/ml streptomycin). Cell viability analysis. Cells were resuspended and plated at a concentration of 2×10^5 cells in 200 μL in 96-well tissue culture plates. Media with peptides was replaced every 48 hours. To assess the number of viable cells, cells were resuspended in PBS and 10 μL mixed in a 1:1 ratio with 0.4% Trypan Blue (Thermo Fisher) and counted using a hematocytometer (Hausser Scientific, Horsham, Pa., USA). To assess viability using an ATP-based assay, cell viability was assessed using the CellTiter-Glo Luminescent Viability assay, according to the manufacturer's instructions (Promega). Luminescence was recorded using the Infinite M1000Pro plate reader using integration time of 250 milliseconds (Tecan).

[2] = system: MOLM13 cells; test: Giemsa staining of cells for morphology; assay type: cell-based, human; details: 20 μM, 6 hours
Protocol: Giemsa staining of cells for Morphology. MOLM13 cells were resupended to a concentration of 1×10^6 cells in 1 milliliter of PBS. Using the benchtop Cytospin Centrifuge instrument (ThermoFisher Scientific), 200 uL of the cell suspension was applied white clipped Cytofunnels (ThermoFisher Scientific) to glass microscope slides (2×10^5 cells/slide). Dip Quick Stain (J-322, Jorgensen Laboratories, Inc) was used for per manufacturer's protocol for the polychromic stain of cells.

[3] = system: primary patient-derived MLL-rearranged leukemia cells; test: Primary patient derived xenograft, survival analysis; assay type: in vivo, NSG mice; details: 50 mg/kg daily intraperitoneal, days 3-17, log-rank p=0.0038
Protocol: Mouse studies. All mouse experiments were carried out in accordance with institutional animal protocols. Two hundred thousand primary AML MLL-rearranged leukemia cells were suspended in […] of PBS and transplanted via tail vein injection into 8-week-old sublethally irradiation (200 rad) female NOD.Cg-Prkdc(scid)Il2rg(tm1Wjl)/SzJ mice (The Jackson Laboratory, Bar Harbor, Me., USA). Recipient mice were maintained on antibiotic supplementation in chow (0.025% trimethoprim, 0.124% sulfamethoxazole, Sulfatrim). Three days after transplant, mice were randomly assigned to experimental treatment groups. MYBMIM peptide suspended in PBS was administered daily through intraperitoneal injection at a daily dose of 50 mg/kg. Mice were treated from days 3-17 of this study for a total of 14 days and then monitored daily with clinical examination for survival analysis.
Statistical Analysis. For comparisons between two sample sets, statistical analysis of means was performed using 2-tailed, unpaired Student's t-tests. Survival analysis was done using the Kaplan-Meier method, as assessed using a log-rank test. For gene expression analysis, statistical significance was assessed using paired t-tests.

## CC[C@@H](C)[C@@H](NC(=O)[C@@H](CCCCN)NC(=O)[C@@H](CCC(=O)O)NC(=O)[C@@H](CC(C)C)NC(=O)[C@@H](CCC(=O)O)NC(=O)[C@@H](CC(C)C)NC(=O)[C@@H](CC(C)C)NC(=O)[C@@H](CC(C)C)NC(=O)[C@@H](CCSC)NC(=O)[C@@H](CO)NC(=O)[C@H](NC(=O)[C@@H](CCC(=O)O)NC(=O)[C@@H](CC(N)=O)NC(=O)[C@@H](CCC(=O)O)NC(=O)[C@@H](CC(C)C)NC(=O)[C@@H](CCCCN)NC(C)=O)[C@H](C)O)C(=O)N[C@H](CCCNC(=N)N)C(=O)N[C@H](CCCCN)C(=O)NCC(=O)NCC(=O)N[C@H](CCCNC(=N)N)C(=O)N[C@H](CCCNC(=N)N)C(=O)N[C@H](CCCNC(=N)N)C(=O)N[C@H](CCC(N)=O)C(=O)N[C@H](CCCNC(=N)N)C(=O)N[C@H](CCCNC(=N)N)C(=O)N[C@H](CCCCN)C(=O)N[C@H](CCCCN)C(=O)N[C@H](CCCNC(=N)N)C(=O)NCC(=O)N[C@H](Cc1ccc(O)cc1)C(N)=O [MYBMIM]
[1]
  AML cell death (live cells on Day 6): induction of AML cell death
[2]
  cell morphology: induces cell death without morphologic evidence of differentiation
[3]
  survival of mice (Kaplan-Meier): prolongs survival
[3]; listed as SEQ ID NO:1
  survival of mice (Kaplan-Meier): impeded leukemia progression and extended survival
